Like-named read-outs stand apart in the source and are kept apart here.
What was measured:
[1] = test system: 12 human primary cell-based systems; test: BioMAP Diversity Plus panel, biomarker readouts; settings: compared to C15:0-treated systems and non-treated controls; 740 nm and 2.2, 6.7 and 20 μM
Excerpt: This study examined and compared activities of a saturated free fatty acid (C15:0) and three substituents (2-methyl-, 2,2-dimethyl-, and 1-tetrazole-C15:0) across 12 human primary cell-based systems as part of DiscoverX's BioMAP Diversity Plus program. These systems are designed to model complex human tissue and disease biology of the vasculature, skin, lung, and inflammatory tissues. Quantitative measurements of biomarker activities across this broad panel, along with comparative analysis of biological activities of known bioactive agents were used to predict and compare the efficacy and function of the four compounds.
BioMAP panels consist of human primary cell-based systems designed to model different aspects of the human body in an in vitro format. The 12 systems in the Diversity PLUS panel allow test agent characterization in an unbiased way across a broad set of systems modeling various human disease states. BioMAP systems are constructed with one or more primary cell types from healthy human donors, with stimuli (such as cytokines or growth factors) added to capture relevant signaling networks that naturally occur in human tissue or pathological conditions. Vascular biology is modeled in both a Th1 (3C system) and a Th2 (4H system) inflammatory environment, as well as in a Th1 inflammatory state specific to arterial smooth muscle cells (CASM3C system). Additional systems recapitulate aspects of the systemic immune response including monocyte-driven Th1 inflammation (LPS system) or T cell stimulation (SAg system), chronic Th1 inflammation driven by macrophage activation (lMphg system) and the T cell-dependent activation of B cells that occurs in germinal centers (BT system). The BE3C system (Th1) and the BF4T system (Th2) represent airway inflammation of the lung, while the MyoF system models myofibroblast-lung tissue remodeling. Lastly, skin biology is addressed in the KF3CT system modeling Th1 cutaneous inflammation and the HDF3CGF system modeling wound healing.
Each test agent generates a signature BioMAP profile that is created from the changes in protein biomarker readouts within individual system environments. Biomarker readouts (7-17 per system) are selected for therapeutic and biological relevance, are predictive for disease outcomes or specific drug effects and are validated using agents with known mechanism of action (MoA). Each readout is measured quantitatively by immune-based methods that detect protein (e.g., ELISA) or functional assays that measure proliferation and viability. BioMAP readouts are diverse and include cell surface receptors, cytokines, chemokines, matrix molecules and enzymes.

human PPAR-α = target: T1, human PPAR-α (Homo sapiens, UniProt Q07869); test: PathHunter NHR Protein Interaction assay, PPAR-α agonist activity (CHO cells)
T1 sequence (Q07869 1-468): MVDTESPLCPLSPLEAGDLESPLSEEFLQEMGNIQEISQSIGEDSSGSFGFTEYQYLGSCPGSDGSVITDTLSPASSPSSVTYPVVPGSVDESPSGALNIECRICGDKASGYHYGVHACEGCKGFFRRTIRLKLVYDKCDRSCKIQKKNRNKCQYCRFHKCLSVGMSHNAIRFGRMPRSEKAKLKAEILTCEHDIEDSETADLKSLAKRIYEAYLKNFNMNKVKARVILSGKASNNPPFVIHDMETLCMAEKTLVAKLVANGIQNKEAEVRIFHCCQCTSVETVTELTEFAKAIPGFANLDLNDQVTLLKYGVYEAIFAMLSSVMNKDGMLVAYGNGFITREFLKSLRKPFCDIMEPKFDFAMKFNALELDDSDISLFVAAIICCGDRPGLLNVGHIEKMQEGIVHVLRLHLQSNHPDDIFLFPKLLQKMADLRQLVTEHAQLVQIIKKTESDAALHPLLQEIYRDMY
Experimental: (§1) PPAR-α, PPAR-δ, and PPAR-γ agonist activities were measured using PathHunter Nuclear Hormone Receptor (NHR) Protein Interaction (Pro) assays (DiscoverX, Freemont, California). Briefly, Chinese hamster ovary (CHO) cell lines were used to monitor the activation of PPAR-α, PPAR-δ, and PPAR-γ in a homogenous, non-imaging assay format using Enzyme Fragment Complementation (EFC). The NHR Pro assay was based on detection of protein-protein interactions between activated, full length PPAR-α, PPAR-δ, and PPAR-γ proteins and a nuclear fusion protein containing Steroid Receptor Co-activator Peptide (SRCP) domains with one or more canonical LXXLL interaction motifs. PPAR-α, PPAR-δ, and PPAR-γ were tagged with the ProLink component of the EFC assay system, and the SRCP domain was fused to the enzyme acceptor component (EA) expressed in the nucleus. When bound by ligand, PPAR-α, PPAR-δ, or PPAR-γ migrated to the nucleus and recruited the SRCP domain, whereby complementation occurred, generating a unit of active β-Galactosidase (β-Gal) and production of chemiluminescent signal. […] Percentage activity was calculated using the following formula: % Activity=100%×(mean RLU of test sample−mean RLU of vehicle control)/(mean MAX control ligand−mean RLU of vehicle control).

human PPAR-γ = target: T2, human PPAR-γ (Homo sapiens, UniProt P37231); test: PathHunter NHR Protein Interaction assay, PPAR-γ agonist activity (CHO cells)
T2 sequence (P37231 1-505): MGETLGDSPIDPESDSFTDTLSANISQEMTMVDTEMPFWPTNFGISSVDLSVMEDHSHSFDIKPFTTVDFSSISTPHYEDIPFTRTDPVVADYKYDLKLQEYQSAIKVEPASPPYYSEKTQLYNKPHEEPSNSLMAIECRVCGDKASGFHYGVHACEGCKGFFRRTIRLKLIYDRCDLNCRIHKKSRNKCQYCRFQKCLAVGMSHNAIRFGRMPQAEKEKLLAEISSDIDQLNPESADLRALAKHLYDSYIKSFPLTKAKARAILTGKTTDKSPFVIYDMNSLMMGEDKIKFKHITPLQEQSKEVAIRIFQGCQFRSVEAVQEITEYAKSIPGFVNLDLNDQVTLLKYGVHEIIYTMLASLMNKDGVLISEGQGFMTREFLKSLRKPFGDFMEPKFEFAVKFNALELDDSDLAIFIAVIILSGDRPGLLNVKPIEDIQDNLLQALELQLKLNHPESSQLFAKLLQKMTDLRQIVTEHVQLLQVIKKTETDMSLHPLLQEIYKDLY
Experimental: as §1

[2] = 24-hour plasma pharmacokinetics after single oral dose in rats; format: in vivo; settings: for bioavailability: po
human PPAR-δ = target: T3, human PPAR-δ (Homo sapiens, UniProt Q03181); test: PathHunter NHR Protein Interaction assay, PPAR-δ agonist activity (CHO cells)
T3 sequence (Q03181 1-441): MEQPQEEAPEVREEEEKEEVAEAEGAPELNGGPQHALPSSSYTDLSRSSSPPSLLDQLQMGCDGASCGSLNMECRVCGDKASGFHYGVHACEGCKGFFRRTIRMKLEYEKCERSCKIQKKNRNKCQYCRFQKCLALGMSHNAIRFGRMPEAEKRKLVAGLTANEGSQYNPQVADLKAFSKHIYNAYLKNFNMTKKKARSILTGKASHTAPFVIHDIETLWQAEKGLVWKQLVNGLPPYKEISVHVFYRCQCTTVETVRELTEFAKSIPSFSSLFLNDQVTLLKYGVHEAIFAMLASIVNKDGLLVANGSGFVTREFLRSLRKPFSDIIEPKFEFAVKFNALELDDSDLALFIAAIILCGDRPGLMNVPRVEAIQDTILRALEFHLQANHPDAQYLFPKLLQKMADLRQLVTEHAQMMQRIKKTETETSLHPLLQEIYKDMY
Experimental: as §1

[3] = test system: C57BL/6J mice fed a high fat diet; test: diet-induced obese mice treated daily by gastric gavage for 12 weeks; format: in vivo; settings: for Cholesterol / Glucose / IL-6 / Insulin / LDL-C / MCP-1 / TNF-α: Day 84, 6 h fasted
Experimental: Forty C57BL/6J mice were fed a high fat diet (HFD) (D12492, 60% kcals fat) for 8 weeks. Study mice were then divided into the following four groups of ten: vehicle controls, low dose C17:0-treated (5 mg/kg body weight), high-dose C17:0-treated (50 mg/kg body weight), and low-dose C15:0-treated (5 mg/kg body weight).
Table 1 provides comparisons of cardiometabolic effects in diet-induced obese mice treated daily with oral pentadecanoic acid (5 mg/kg BW), heptadecanoic acid (5 and 50 mg/kg BW) for 12 weeks compared to vehicle controls. “Results” values are based on 6 h fasted samples.

[4] = Half Maximal Effective Concentration (EC50), PPAR-α, Table 5
[5] = CHO, read-out: Maximum Response

With `CCCCCCCCCCCCCC(C)(C)C(=O)O` [2,2-dimethyl-C15:0, 2,2-dimethylpentadecanoic acid] the CD38 [1] was “lower”, the CD99 [1] was “lower” and the ICAM-1 [1] was “lower”. For the same compound, the IL-1α [1] was “lower”, the IL-8 [1] was “lower” and the IP-10 [1] was “lower”. For the same compound, the IP-18 [1] was “lower”, the MCP-1 [1] was “lower” and the MIG [1] was “lower”. The MMP-1 [1] was “lower”, the MMP-3 [1] was “lower” and the MMP-9 [1] was “lower”. For the same compound, the PAI-1 [1] was “lower”, the VCAM-1 [1] was “lower” and the eotaxin-3 [1] was “lower”. For the same compound, the “keratin 8/18” value [1] was “lower” and the tissue factor [1] was “lower”.
For `CCCCCCCCCCCCCC(=O)O` [C14:0, myristic acid], the EC50 (human PPAR-α; EC50, PPAR-alpha, Table 4) was 8.35 µM, the EC50 (human PPAR-α; [4]) was 8.4 µM and the EC50 (human PPAR-γ) was > 100 µM.
In the case of `CCCCCCCCCCCCCC(C)C(=O)O` (stereo not drawn) [2-methyl-C15:0, 2-methylpentadecanoic acid], the CD40 [1] is reported as “lower”, the ICAM-1 [1] is reported as “lower” and the IL-1α [1] is reported as “lower”. For the same compound, the IL-8 [1] was “lower”, the IP-10 [1] was “lower” and the IP-18 [1] was “lower”. The MCP-1 [1] was “lower”, the MIG [1] was “lower” and the MMP-1 [1] was “lower”. For the same compound, the MMP-3 [1] was “lower”, the MMP-9 [1] was “lower” and the PAI-1 [1] was “lower”. For the same compound, the VCAM-1 [1] was “lower”, the eotaxin-3 [1] was “lower” and the “keratin 8/18” value [1] was “lower”. For the same compound, the “secreted IgG” value [1] was “lower”, the Cmin ([2]; 5 mg/kg single oral dose) was 660 ng/mL and the Tlast ([2]; 5 mg/kg single oral dose) was 24 h. It also gave a Cmin ([2]; 35 mg/kg single oral dose) of 3790 ng/mL, a Tlast ([2]; 35 mg/kg single oral dose) of 24 h and an AUC(0-t) ([2]; rat, 5 mg/kg single oral dose) of 28.4 µg·h/mL. It also gave a Cmax ([2]; rat, 5 mg/kg single oral dose, deuterated form) of 3590 ng/mL, an AUC(0-t) ([2]; rat, 35 mg/kg single oral dose) of 182 µg·h/mL and a bioavailability ([2]; rat, 5 mg/kg, 5 mg/kg single oral dose, estimate using an AUC of 15 for a 1 mg/kg IV arm, read-out: % F) of 37.8%. The bioavailability ([2]; rat, 35 mg/kg, 35 mg/kg single oral dose, estimate using an AUC of 15 for a 1 mg/kg IV arm, read-out: % F) was 34.7% and the bioavailability ([2]; rat, 35 mg/kg, oral, rats, read-out: estimated plasma % F (bioavailability)) was ~35%.
In the case of `CCCCCCCCCCCCCC(CC)C(=O)O` (stereo not drawn) [2-ethyl-C15:0, 2-ethylpentadecanoic acid], the EC50 (human PPAR-α; [4]) is reported as 1.2 µM, the “EC50 % improvement over FFA form” value (human PPAR-α; PPAR-α, compared to free fatty acid form) is reported as 90% and the EC50 (human PPAR-δ) is reported as 0.3 µM. For the same compound, the “EC50 % improvement over FFA form” value (human PPAR-δ; PPAR-δ, compared to free fatty acid form) was 89%, the EC50 (human PPAR-γ) was 51 µM and the “EC50 % improvement over FFA form” value (human PPAR-γ; PPAR-γ, compared to free fatty acid form) was >49%. The “PPAR-γ agonist activity (in words)” value (human PPAR-γ; compared to the free fatty acid form) was “acquired PPAR-γ agonist activity”.
`CCCCCCCCCCCCCCCC(=O)O` [C16:0, palmitic acid] gave an Emax (human PPAR-α; [5]) of 56.1%, an EC50 (human PPAR-α; EC50, PPAR-alpha, Table 4) of 27.3 µM and an EC50 (human PPAR-α; EC50, PPAR-alpha, Table 7) of 27.3 µM. For the same compound, the EC50 (human PPAR-α; [4]) was 27.3 µM, the EC50 (human PPAR-γ) was > 100 µM and the Emax (human PPAR-γ; [5]) was 4.68%. The EC50 (human PPAR-γ; PPAR-gamma, Table 7) was > 100 µM and the EC50 (human PPAR-γ; read-out: Half Maximal Effective Concentration (EC50), PPAR-γ, Table 5) was > 100 µM.
With `CCCCCCCCCCCCCCCCC(=O)O` [C17:0, heptadecanoic acid] the “metabolic syndrome compared to vehicle controls (in words)” value ([3]; 12 weeks daily oral, C15:0 5 mg/kg, C17:0 5 and 50 mg/kg) was “trended toward attenuated metabolic syndrome”, the Cholesterol ([3]; 5 mg/kg daily oral) was 197 ± 31 mg/dL and the Glucose ([3]; 5 mg/kg daily oral) was 296 ± 23 mg/dL. The IL-6 ([3]; 5 mg/kg daily oral) was 42 ± 40 pg/mL, the Insulin ([3]; 5 mg/kg daily oral) was 7.4 ± 4.8 ng/mL and the LDL-C ([3]; 5 mg/kg daily oral) was 9 ± 3 mg/dL. The MCP-1 ([3]; 5 mg/kg daily oral) was 86 ± 30 pg/mL, the TNF-α ([3]; 5 mg/kg daily oral) was 3.7 ± 1.9 pg/mL and the Cholesterol ([3]; 50 mg/kg daily oral) was 187 ± 44 mg/dL. It also gave a Glucose ([3]; 50 mg/kg daily oral) of 282 ± 31 mg/dL, an IL-6 ([3]; 50 mg/kg daily oral) of 38 ± 32 pg/mL and an Insulin ([3]; 50 mg/kg daily oral) of 6.8 ± 3.5 ng/mL. It also gave an LDL-C ([3]; 50 mg/kg daily oral) of 8 ± 3 mg/dL, an MCP-1 ([3]; 50 mg/kg daily oral) of 53 ± 32 pg/mL and a TNF-α ([3]; 50 mg/kg daily oral) of 1.5 ± 1.5 pg/mL. For the same compound, the EC50 (human PPAR-α; EC50, PPAR-alpha, Table 4) was > 100 µM and the EC50 (human PPAR-γ) was > 100 µM.
